Data reported in PMC4239038, “The Potent Cdc7-Dbf4 (DDK) Kinase Inhibitor XL413 Has Limited Activity in Many Cancer Cell Lines and Discovery of Potential New DDK Inhibitor Scaffolds” (PLoS ONE, 2014).
Where a name gives a salt, the structure may show the parent alone.

Each compound was assayed against T1, purified DDK (Homo sapiens, UniProt O00311) (assay: DDK thermal stability shift assay (TSA)). Conditions: library screen, 20 µM compound.
T1 construct: His6-Smt3 (SUMO) (N, cleaved yes); made in house; host or cells: E. coli BL21-RIPL (pKT37, pETDuet-1 vector)
Type: binding

T1 sequence (O00311 whole entry): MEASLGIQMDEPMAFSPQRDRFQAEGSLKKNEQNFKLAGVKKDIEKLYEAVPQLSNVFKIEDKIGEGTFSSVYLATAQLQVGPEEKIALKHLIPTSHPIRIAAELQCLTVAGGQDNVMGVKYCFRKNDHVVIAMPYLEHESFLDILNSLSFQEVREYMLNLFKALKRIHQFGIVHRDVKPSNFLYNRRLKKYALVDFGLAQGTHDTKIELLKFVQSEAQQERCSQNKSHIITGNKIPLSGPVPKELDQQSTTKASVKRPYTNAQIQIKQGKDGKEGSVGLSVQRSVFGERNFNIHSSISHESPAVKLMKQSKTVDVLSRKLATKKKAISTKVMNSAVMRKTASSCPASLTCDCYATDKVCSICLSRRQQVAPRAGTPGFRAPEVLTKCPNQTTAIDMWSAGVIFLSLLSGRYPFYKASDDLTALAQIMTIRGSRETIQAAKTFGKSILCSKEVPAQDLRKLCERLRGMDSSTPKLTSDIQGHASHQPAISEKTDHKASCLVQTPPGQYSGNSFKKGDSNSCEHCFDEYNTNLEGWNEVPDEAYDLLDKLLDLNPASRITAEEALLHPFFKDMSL
T1 sequence (Q9UBU7 341-674 partner limits assumed): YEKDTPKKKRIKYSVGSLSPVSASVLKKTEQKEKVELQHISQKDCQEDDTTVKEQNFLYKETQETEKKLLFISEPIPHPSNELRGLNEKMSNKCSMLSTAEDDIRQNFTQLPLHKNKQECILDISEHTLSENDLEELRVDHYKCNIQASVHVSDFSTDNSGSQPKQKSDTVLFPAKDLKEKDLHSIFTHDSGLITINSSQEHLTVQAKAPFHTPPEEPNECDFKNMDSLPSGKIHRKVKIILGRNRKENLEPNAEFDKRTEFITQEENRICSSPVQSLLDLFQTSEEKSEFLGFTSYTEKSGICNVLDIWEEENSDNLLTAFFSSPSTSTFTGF

ΔTm [°C] | ΔTm at 20 µM [°C] | Compound
0.6 |  | O=C1Cc2c([nH]c3ccc(Br)cc23)-c2ncccc2N1 [1-Azakenpaullone]
0 |  | Cc1ncc2ccccc2c1C#N [4-Cyano-3-methylisoquinoline]
0.8 |  | CCN(CC)CCCCN1c2ccccc2Oc2ccc(Cl)cc21.Cl [10-DEBC hydrochloride]
0 |  | COc1cc2ncc(-c3ccccc3)nc2cc1OC [AG 1296]
0 |  | Cc1nc2cc3nc(-c4cccs4)cnc3cc2n1C [AGL 2043]
 | 0.3 | CCN(CC)CCCCN1c2ccccc2Oc2ccc(Cl)cc21 [Akt Inhibitor X]
 | 0.5 | O=C1Cc2c([nH]c3ccc([N+](=O)[O-])cc23)-c2ccccc2N1 [Alsterpaullone]
0.2 |  | Cn1cnc2cc3c(Nc4cccc(Br)c4)ncnc3cc21 [BPIQ-I]
 | 0.4 | O=C1NC(=O)c2cc(Nc3ccc(F)cc3)c(Nc3ccc(F)cc3)cc21 [CGP 53353]
32 |  | O=C(O)/C=C/c1cc(Br)c(Br)c(Br)c1Br [Casein Kinase II Inhibitor III, TBCA]
2.2 |  | O=C1N=C(NCc2cccs2)SC1=Cc1ccc2ncccc2c1 [Cdk1 Inhibitor IV, RO-3306, 5-(6-Quinolinylmethylene)-2-[(2-thienylmethyl)amino]-4(5H)-thiazolone]
0.3 |  | Cc1nc(N)sc1-c1ccnc(Nc2cccc([N+](=O)[O-])c2)n1 [Cdk2/9 Inhibitor]
0 |  | Nc1[nH]nc2nnc(-c3c(-c4ccccc4)nn4ccccc34)cc12 [ERK Inhibitor II, FR180204]
 | 0.9 | O=S(=O)(c1cccc2cnccc12)N1CCCNCC1 [Fasudil hydrochloride]
0.3 |  | c1ccc(-c2cnc(Nc3ccc(OCCN4CCCC4)cc3)s2)cc1 [Flt-3 Inhibitor III]
3.5 |  | O=C1Nc2ccc(I)cc2C1=Cc1cc(Br)c(O)c(Br)c1 [GW 5074, 3-(3,5-Dibromo-4-hydroxy-benzylidene)-5-iodo-1,3-dihydro-indol-2-one]
0.5 |  | CNCCNS(=O)(=O)c1cccc2cnccc12.Cl.Cl [H-8, Dihydrochloride]
0 |  | Cl.Cl.NC(N)=NCCNS(=O)(=O)c1cccc2cnccc12 [HA 1004, Dihydrochloride]
0 |  | O=C(Nc1cc(Cl)cc2c1[nH]c1cnccc12)c1cccnc1 [IKK Inhibitor X]
1.9 |  | N#Cc1c(C2CCNCC2)cc(-c2c(O)cccc2OCC2CC2)nc1N [IKK-2 Inhibitor VIII]
0.3 |  | NC(=O)Nc1cc(-c2ccccc2)sc1C(N)=O [IKK-2 Inhibitor XI]
 | 1 | O=C1NC(=O)c2c1c1c3ccccc3[nH]c1n1cncc21 [Isogranulajmide]
0 |  | Cn1nc2c3c(cccc31)C(=O)c1ccccc1-2 [JNK Inhibitor, Negajve Control]
0.2 |  | CCCCCCOC(=O)[C@]1(O)C[C@@H]2O[C@@]1(C)n1c3ccccc3c3c4c(c5c6ccccc6n2c5c31)C(=O)NC4 [KT5720]

ΔTm [°C] | ΔTm at 20 µM [°C] | Compound
0.2 |  | COc1cc2nccc(Oc3ccc(NC(=O)Nc4ccc(F)cc4F)c(F)c3)c2cc1OC [Ki 8751]
 | 0.1 | O=c1cc(N2CCNCC2)oc2c(-c3ccccc3)cccc12 [LY 303511]
0.6 |  | Cl.O=S(=O)(c1cccc2c(Cl)cccc12)N1CCCNCC1 [ML 9 hydrochloride]
0.3 |  | Cl.O=S(=O)(c1cccc2c(I)cccc12)N1CCCNCC1 [ML-7, Hydrochloride]
0.3 |  | Nc1ccc2ncnc(NCCc3ccc(Oc4ccccc4)cc3)c2c1 [NF-kB Acjvajon Inhibitor]
 | 0.2 | CC[C@H](CO)Nc1nc(NCc2ccccc2O)c2ncn(C(C)C)c2n1 [Olomoucine II]
 | 0.1 | Cn1cnc2c(NCc3ccccc3)nc(NCCO)nc21 [Olomoucine]
0.2 |  | CNc1cc2c(Nc3cccc(Br)c3)ncnc2cn1 [PD 158780]
 | 0.4 | Cc1[nH]c(/C=C2\C(=O)Nc3ccc(S(=O)(=O)Cc4c(Cl)cccc4Cl)cc32)c(C)c1C(=O)N1CCC[C@@H]1CN1CCCC1 [PHA 665752]
0 |  | Cc1cc(C(C)Nc2ccccc2)c2nc(N3CCOCC3)cc(=O)n2c1 (centres unmarked) [PI 3-Kβ Inhibitor VI, TGX-221]
0.3 |  | O=C1NC(=O)C(=Cc2ccc(-c3ccc(F)cc3O)o2)S1 [PI 3-Kγ/CKII Inhibitor]
0.6 |  | Nc1ccc(-c2cccc3c(=O)cc(N4CCOCC4)oc23)cc1 [PI 828]
0.2 |  | CCCOc1ccc(/C=C2/SC(=O)NC2=O)cc1 [PIM1/2 Kinase Inhibitor VI]
0.2 |  | O=C1NC(=O)C(c2cn(CCCn3ccnc3)c3ccccc23)=C1Nc1ccccc1 [PKCb Inhibitor]
0.6 |  | Nc1ncnc2c1cnn2-c1ccccc1 [PP3]
 | 0.2 | CC(C)[C@H](CO)Nc1nc(Nc2cccc(Cl)c2)c2ncn(C(C)C)c2n1 [Purvalanol A]
 | 0 | CO[C@H]1C[C@@H]2CC[C@@H](C)[C@@](O)(O2)C(=O)C(=O)N2CCCC[C@H]2C(=O)O[C@H]([C@H](C)C[C@@H]2CC[C@@H](O)[C@H](OC)C2)CC(=O)[C@H](C)/C=C(\C)[C@@H](O)[C@@H](OC)C(=O)[C@H](C)C[C@H](C)/C=C/C=C/C=C/1C [Rapamycin]
0.5 |  | COc1ccc2nc3c(c(C)nn3C)c(NCCOCCO)c2c1 [Ras/Rac TransformaEon Blocker, SCH 51344]
 | 1.4 | c1nc2nc(Nc3ccc(N4CCOCC4)cc3)nc(NC3CCCCC3)c2[nH]1 [Reversine]
0 |  | O=C(Nc1ccncc1)Nc1c(Cl)cc(Cl)cc1Cl [Rho Kinase Inhibitor II]
1.5 |  | O=C(Nc1ccc(-c2cn[nH]c2)cc1)C1COc2ccccc2O1 (centres unmarked) [Rho Kinase Inhibitor V]
1.5 |  | CS(=O)(=O)O.Cn1cc(C2=C(c3cn(CCCSC(=N)N)c4ccccc34)C(=O)NC2=O)c2ccccc21 [Ro 31-8220 mesylate]
 | 0.6 | Oc1ccc(-c2nc(-c3ccncc3)c(-c3ccc(F)cc3)[nH]2)cc1 [SB 202190]

Compound | ΔTm [°C] | ΔTm at 20 µM [°C]
O=c1[nH]c2ccccc2n1C1CCN(Cc2ccc(-c3nc4cc5nc[nH]c5cc4nc3-c3ccccc3)cc2)CC1 | 0 | 
COc1cc2ncnc(N3CCN(C(=O)Nc4ccc(Oc5ccccc5)cc4)CC3)c2cc1OC | 0 | 
COc1cc2c(cc1OC)-c1[nH]nc(Nc3cccc(F)c3)c1C2 | 0.3 | 
Nc1ncnc2c1c(I)cn2[C@@H]1O[C@H](CO)[C@@H](O)[C@H]1O [5-Iodotubercidin] | 1.9 | 
CC(C)(C)c1cc(C=C(C#N)C#N)cc(Br)c1O [AG 1024] | 1.2 | 
COc1cc2ncnc(Nc3cccc(Cl)c3)c2cc1OC [AG 1478] | 0.3 | 
O=c1cc(-c2cccc3c2Sc2ccccc2S3)oc(N2CCOCC2)c1 [ATM Kinase Inhibitor] | 1.1 | 
O=C1NC(=O)c2c1c1c3ccccc3[nH]c1c1[nH]c3ccccc3c21 [Arcyriaflavin A] | 0.5 | 
Cc1ccc(S(=O)(=O)/C=C/C#N)cc1 [BAY 11-7082] | 0 | 
CN1CCC(Nc2ncc3ncnc(Nc4ccc(F)c(Cl)c4)c3n2)CC1.Cl.Cl [BIBX 1382 dihydrochloride] | 0.8 | 
CCN(CC)C(=O)c1ccc(Nc2nc(OCC3CCCCC3)c3[nH]cnc3n2)cc1 [Cdk2 Inhibitor IV, NU6140] | 0.2 | 
Cc1ccc2c(=O)c3ccccc3n(CCCN)c2c1C.O=C(O)/C=C\C(=O)O [ER 27319 maleate] | 0.5 | 
O=C(c1ccc(Nc2nccc(-c3cc4ccccc4s3)n2)cc1)N1CCC(N2CCCC2)CC1 [IKK 16] | 1.5 | 
O=C(c1ccc(Nc2nccc(-c3cc4ccccc4s3)n2)cc1)N1CCC(N2CCCC2)CC1 [IKK Inhibitor VII] | 1.7 | 
NC(=O)Nc1sc(-c2ccccc2)cc1C(N)=O [IKK-2 Inhibitor VI] | 1.2 | 
O=C1Nc2ccc(I)cc2/C1=C1/Nc2ccccc2/C1=N\O [Indirubin-3'-monoxime, 5-Iodo-] | 0.5 | 
C/C(O)=C(\C#N)C(=O)Nc1cc(Br)ccc1Br [LFM-A13] | 0 | 
Cl.O=c1cc(N2CCOCC2)oc2c(-c3ccccc3)cccc12 [LY 294002 hydrochloride] | 0.8 | 
O=c1cc(N2CCOCC2)oc2c(-c3ccccc3)cccc12 [LY 294002] |  | 0.8
Cc1[nH]c(/C=C2\C(=O)Nc3ccc(S(=O)(=O)N(C)c4cccc(Cl)c4)cc32)c(C)c1C(=O)N1CCN(C)CC1 [Met Kinase Inhibitor] | 0.2 | 
O=C1Nc2ccc(Cl)cc2/C1=C/c1cc(Cl)c(O)c(Cl)c1 [PKR Inhibitor, NegaKve Control] | 0.2 | 
CC(=O)c1c(O)c(C)c(O)c(Cc2c(O)c3c(c(C(=O)/C=C/c4ccccc4)c2O)OC(C)(C)C=C3)c1O [Ro]lerin, 3'-[(8-Cinnamoyl-5,7-dihydroxy-2,2-dimethyl-2H-1-benzopyran-6-yl)methyl]-2',4',6'-trihydroxy-5'-methylacetophenone] |  | 2.4

Same assay, conditions: library screen, 20 µM compound; 20 µM

ΔTm [°C] | Compound
0.2 | O=C(NC(NC(=S)Nc1ccc(F)c([N+](=O)[O-])c1)C(Cl)(Cl)Cl)C(c1ccccc1)c1ccccc1 (centres unmarked) [CGK 733]
0.5 | Nc1ncnc2n[nH]c(Nc3ccc(F)cc3)c12 [CGP 57380]
1 | O=c1cc(N2CCOCC2)oc2c1ccc1ccccc12 [DNA-PK Inhibitor II]
0.2 | Nc1[nH]nc2nc3ccccc3nc12 [NSC 693868]
1.2 | O=c1cc(N2CCOCC2)oc2c1ccc1ccccc12 [NU 7026]

Compound | ΔTm [°C]
CN(C)CCCn1cc(C2=C(c3c[nH]c4ccccc34)C(=O)NC2=O)c2ccccc21 [GF 109203X] | 0.6
Cl.Cl.O=S(=O)(NCCNC/C=C/c1ccc(Br)cc1)c1cccc2cnccc12 [H 89 dihydrochloride] | 0.3

Same assay, conditions: titration across a 200-fold range of inhibitor concentrations

Compound | ΔTm profile
O=c1c(-c2ccc(O)cc2)coc2cc(O)cc(O)c12 [Genistein, 5,7-Dihydroxy-3-(4-hydroxyphenyl)-4H-1-benzopyran-4-one] | increased ΔTm at lower inhibitor concentrations and then decreased ΔTm at 5, 10 and 20 µM concentrations
